Experimental data reported in patent US20100098641A1, “Monophosphates as Mutual Prodrugs of Anti-Inflammatory Signal Transduction Modulators (AISTM's) and Beta-Agonists for the Treatment of Pulmonary Inflammation and Bronchoconstriction” (priority 2006, published 2010).
Where two headings read alike, the source gives them in different places.

Experiments:
[1] = Half life of mutual prodrug in reaction buffer only (pH 7.4 tris/Mg2+/Zn2+); assay type: physicochemical; details: reaction buffer without alkaline phosphatase, reaction buffer pH 7.4, no ALP
Experimental: Reaction Buffer (pH 7.4, 5 mM tris/1 mM Mg^2+/1 mM Zn^2+)
(§1) The heat block was set at the 37 degrees. Then 0.5 mL of alkaline phosphatase solution was added into 4 preheated Eppendorf tubes. The aliquot 0.5 of prodrug and drug standards were added into preheated Eppendorf tubes. Immediately after vortexing the aliquots of 25 μL of the all reaction solutions were made into the respective 96-well plate positions. The internal standard (75 μl of 500 ng/mL Glyburide) was added into all samples after each aliquots. That procedure was repeated at every 15 minute intervals for ˜4-5 hours.
(§2) In the calculation of half life, we assumed that the disappearance of the mutual prodrug of this invention followed first order kinetics. Therefore,
(§3) The area peak ratio of prodrug vs IS was plotted against time first; the peak area ratios of later time points were normalized with the peak area ratio of initial time point (ASAP). The natural log of the normalized ratio was then plotted against time to generate a linear curve. The slope of this linear curve k was used for the following calculation.
Drug concentrations are calculated by normalizing the peak area ration to (t 0). Thus, calculated drug concentrations at any time point=normalized peak area ratio [t (0) mean/t mean]multiplied initial drug concentration. […]

[2] = target: alkaline phosphatase (Homo sapiens, UniProt P05187); assay: Conversion of mutual prodrugs to salmeterol and AISTM drug after exposure to alkaline phosphatase in vitro (LCMS); assay type: in vitro ADME; details: for Calculated Compound Final Conc. (μM) at 270 mins.: 270 mins in ALP; for half-life at 0.1 mg/mL / half-life at 111.7 μM: human, alkaline phosphatase (Sigma P-3895) in reaction buffer, read-out: Half Life t1/2; for Example 37 in ALP (Peak Area Ratio) Normalized / Example 37 in ALP (Peak Area Ratio) mean / Example 29 in ALP (Peak Area Ratio) Normalized / Example 29 in ALP (Peak Area Ratio) mean: 37 degrees; for half-life at 111.7 μM: Table 1b
alkaline phosphatase, sequence (P05187 23-506): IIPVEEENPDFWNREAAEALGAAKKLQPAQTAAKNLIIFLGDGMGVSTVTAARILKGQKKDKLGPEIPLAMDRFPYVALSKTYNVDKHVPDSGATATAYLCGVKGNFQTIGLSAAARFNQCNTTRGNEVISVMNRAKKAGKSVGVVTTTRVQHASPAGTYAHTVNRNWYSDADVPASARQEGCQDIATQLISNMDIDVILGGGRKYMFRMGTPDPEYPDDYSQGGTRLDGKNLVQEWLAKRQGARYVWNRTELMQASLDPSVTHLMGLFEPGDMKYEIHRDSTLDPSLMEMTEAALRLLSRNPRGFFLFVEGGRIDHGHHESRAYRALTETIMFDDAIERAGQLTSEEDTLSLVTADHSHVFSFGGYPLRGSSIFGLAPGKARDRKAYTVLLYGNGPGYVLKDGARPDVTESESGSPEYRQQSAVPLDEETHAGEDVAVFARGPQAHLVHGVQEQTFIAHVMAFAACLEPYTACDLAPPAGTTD
Experimental: Conversion of the Mutual AISTM-β-Agonist Prodrugs (Described in Examples 29 and 37) to Salmeterol and Respective AISTM Drugs after Exposure to Alkaline Phosphatase In Vitro
Reaction Buffer (pH 7.4, 5 mM tris/1 mM Mg^2+/1 mM Zn^2+) […]
Dissolved ˜2 mg of the mutual prodrug of invention in 10 ml 1:1 acetonitrile/water.
Dissolved ˜2 mg of each MRA and β-agonist in 20 ml 1:1 acetonitrile/water
The stock solutions were mixed in microcentrifuge tubes, as depicted in the following Table:
as §1
The 96-well plates were then analyzed using the LCMS technique.
as §2, §3
Drug concentrations are calculated by normalizing the peak area ration to (t 0). Thus, calculated drug concentrations at any time point=normalized peak area ratio [t (0) mean/t mean]multiplied initial drug concentration. Data (normalized peak area ratio) for the calculations of drug concentrations are listed in Table 1a (ALP activation) and 1b (half-life in ALP and buffer only) for the compound prepared in Example 29, salmeterol, and the ARRY-797 compound (Munson et al., 2004) and Table 2a (ALP activation) and 2b (half-life in ALP and buffer only)) for the compound prepared in Example 37, salmeterol, and the PDE4 inhibitor, CDP-840 (Alexander et al., 2002).

COc1ccc([C@H](Cc2cc[n+](Cc3ccc(C(O)CNCCCCCCOCCCCc4ccccc4)cc3OP(=O)(O)O)cc2)c2ccccc2)cc1OC1CCCC1 (stereo in doubt) [Example 37, 4-[2-(3-Cyclopentyloxy-4-methoxy-phenyl)-2-phenyl-ethyl]-1-(4-{1-hydroxy-2-[6-(4-phenyl-butoxy)-hexylamino]-ethyl}-2-phosphonooxy-benzyl)-pyridinium]
half-life ([1]; Table 2b): 6.42 h | Half Life t1/2 ([2]; ALP Enzyme Conc. 0.224 mg/mL, Table 2b, first order kinetics assumed): 0.925 h | Calculated Compound Final Conc. (μM) at 270 mins. ([2]; added initial conc. 117.4 μM in reaction mixture): 1.9 µM | half-life at 0.1 mg/mL ([2]; pH 7.4, ALP Enzyme Conc. 0.224 mg/mL, Table 2b, first order kinetics assumed): 0.775 h | half-life at 0.1 mg/mL ([2]; pH 7.4, ALP Enzyme Conc. 0.443 mg/mL, Table 2b, first order kinetics assumed): 0.41 h | Example 37 in ALP (Peak Area Ratio) Normalized ([2]; time 0 mins): 1.0000 | Example 37 in ALP (Peak Area Ratio) mean ([2]; time 0 mins): 0.8115 | Example 37 in ALP (Peak Area Ratio) Normalized ([2]; time 15.0 mins): 0.5126 | Example 37 in ALP (Peak Area Ratio) mean ([2]; time 15.0 mins): 0.4160 | Example 37 in ALP (Peak Area Ratio) Normalized ([2]; time 30.0 mins): 0.2705 | Example 37 in ALP (Peak Area Ratio) mean ([2]; time 30.0 mins): 0.2195 | Example 37 in ALP (Peak Area Ratio) Normalized ([2]; time 45.0 mins): 0.1719 | Example 37 in ALP (Peak Area Ratio) mean ([2]; time 45.0 mins): 0.1395 | Example 37 in ALP (Peak Area Ratio) Normalized ([2]; time 60.0 mins): 0.1280 | Example 37 in ALP (Peak Area Ratio) mean ([2]; time 60.0 mins): 0.1039 | Example 37 in ALP (Peak Area Ratio) Normalized ([2]; time 75.0 mins): 0.0974 | Example 37 in ALP (Peak Area Ratio) mean ([2]; time 75.0 mins): 0.0791 | Example 37 in ALP (Peak Area Ratio) Normalized ([2]; time 90.0 mins): 0.0752 | Example 37 in ALP (Peak Area Ratio) mean ([2]; time 90.0 mins): 0.0610 | Example 37 in ALP (Peak Area Ratio) Normalized ([2]; time 105 mins): 0.0630 | Example 37 in ALP (Peak Area Ratio) mean ([2]; time 105 mins): 0.0511 | Example 37 in ALP (Peak Area Ratio) Normalized ([2]; time 120 mins): 0.0478 | Example 37 in ALP (Peak Area Ratio) mean ([2]; time 120 mins): 0.0388 | Example 37 in ALP (Peak Area Ratio) Normalized ([2]; time 135 mins): 0.0439 | Example 37 in ALP (Peak Area Ratio) mean ([2]; time 135 mins): 0.0357 | Example 37 in ALP (Peak Area Ratio) Normalized ([2]; time 150 mins): 0.0322 | Example 37 in ALP (Peak Area Ratio) mean ([2]; time 150 mins): 0.0262 | Example 37 in ALP (Peak Area Ratio) Normalized ([2]; time 165 mins): 0.0296 | Example 37 in ALP (Peak Area Ratio) mean ([2]; time 165 mins): 0.0240 | Example 37 in ALP (Peak Area Ratio) Normalized ([2]; time 180 mins): 0.0275 | Example 37 in ALP (Peak Area Ratio) mean ([2]; time 180 mins): 0.0224 | Example 37 in ALP (Peak Area Ratio) Normalized ([2]; time 210 mins): 0.0227 | Example 37 in ALP (Peak Area Ratio) mean ([2]; time 210 mins): 0.0184 | Example 37 in ALP (Peak Area Ratio) Normalized ([2]; time 240 mins): 0.0198 | Example 37 in ALP (Peak Area Ratio) mean ([2]; time 240 mins): 0.0161 | Example 37 in ALP (Peak Area Ratio) Normalized ([2]; time 270 mins): 0.0161 | Example 37 in ALP (Peak Area Ratio) mean ([2]; time 270 mins): 0.0131

CC(C)Cn1ncc2cc(Oc3ccc(F)cc3F)c(C(=O)NCC[N+](C)(C)Cc3cc(C(O)CNCCCCCCOCCCCc4ccccc4)ccc3OP(=O)(O)O)cc21 (stereo not shown) [Example 29, (2-{[5-(2,4-Difluoro-phenoxy)-1-isobutyl-1H-indazole-6-carbonyl]-amino}-ethyl)-(5-{-hydroxy-2-[6-(4-phenyl-butoxy)-hexylamino]-ethyl}-2-phosphonooxy-benzyl)-dimethyl-ammonium]
half-life ([1]; Table 1b): 57.8 h | Calculated Compound Final Conc. (μM) at 270 mins. ([2]; added initial conc. 111.7 μM in reaction mixture): 57.5 µM | half-life at 111.7 μM ([2]; pH 7.4, ALP Enzyme Conc. 0.224 mg/mL, first order kinetics assumed): 5.78 h | half-life at 111.7 μM ([2]; pH 7.4, ALP Enzyme Conc. 0.443 mg/mL, first order kinetics assumed): 2.36 h | Example 29 in ALP (Peak Area Ratio) Normalized ([2]; time 0 mins): 1.0000 | Example 29 in ALP (Peak Area Ratio) mean ([2]; time 0 mins): 2.3900 | Example 29 in ALP (Peak Area Ratio) Normalized ([2]; time 15.0 mins): 0.9289 | Example 29 in ALP (Peak Area Ratio) mean ([2]; time 15.0 mins): 2.2200 | Example 29 in ALP (Peak Area Ratio) Normalized ([2]; time 30.0 mins): 0.9247 | Example 29 in ALP (Peak Area Ratio) mean ([2]; time 30.0 mins): 2.2100 | Example 29 in ALP (Peak Area Ratio) Normalized ([2]; time 45.0 mins): 0.8368 | Example 29 in ALP (Peak Area Ratio) mean ([2]; time 45.0 mins): 2.0000 | Example 29 in ALP (Peak Area Ratio) Normalized ([2]; time 60.0 mins): 0.7552 | Example 29 in ALP (Peak Area Ratio) mean ([2]; time 60.0 mins): 1.8050 | Example 29 in ALP (Peak Area Ratio) Normalized ([2]; time 75.0 mins): 0.7050 | Example 29 in ALP (Peak Area Ratio) mean ([2]; time 75.0 mins): 1.6850 | Example 29 in ALP (Peak Area Ratio) Normalized ([2]; time 90.0 mins): 0.6402 | Example 29 in ALP (Peak Area Ratio) mean ([2]; time 90.0 mins): 1.5300 | Example 29 in ALP (Peak Area Ratio) Normalized ([2]; time 105 mins): 0.6109 | Example 29 in ALP (Peak Area Ratio) mean ([2]; time 105 mins): 1.4600 | Example 29 in ALP (Peak Area Ratio) Normalized ([2]; time 120 mins): 0.6402 | Example 29 in ALP (Peak Area Ratio) mean ([2]; time 120 mins): 1.5300 | Example 29 in ALP (Peak Area Ratio) Normalized ([2]; time 135 mins): 0.6192 | Example 29 in ALP (Peak Area Ratio) mean ([2]; time 135 mins): 1.4800 | Example 29 in ALP (Peak Area Ratio) Normalized ([2]; time 150 mins): 0.5941 | Example 29 in ALP (Peak Area Ratio) mean ([2]; time 150 mins): 1.4200 | Example 29 in ALP (Peak Area Ratio) Normalized ([2]; time 165 mins): 0.5879 | Example 29 in ALP (Peak Area Ratio) mean ([2]; time 165 mins): 1.4050 | Example 29 in ALP (Peak Area Ratio) Normalized ([2]; time 180 mins): 0.5439 | Example 29 in ALP (Peak Area Ratio) mean ([2]; time 180 mins): 1.3000 | Example 29 in ALP (Peak Area Ratio) Normalized ([2]; time 210 mins): 0.5146 | Example 29 in ALP (Peak Area Ratio) mean ([2]; time 210 mins): 1.2300 | Example 29 in ALP (Peak Area Ratio) Normalized ([2]; time 240 mins): 0.4916 | Example 29 in ALP (Peak Area Ratio) mean ([2]; time 240 mins): 1.1750 | Example 29 in ALP (Peak Area Ratio) Normalized ([2]; time 270 mins): 0.5146 | Example 29 in ALP (Peak Area Ratio) mean ([2]; time 270 mins): 1.2300
